Test results taken from article PMC7349874, “High Content Screening Using New U2OS Reporter Cell Models Identifies Harmol Hydrochloride as a Selective and Competitive Antagonist of the Androgen Receptor” (Cells, 2020).
Counter-ions that a name gives are not always drawn. Like-named read-outs stand apart in the source and are kept apart here.

Legend:
[1] = molecular target: T1, full-length wild-type AR (hAR) (Homo sapiens, UniProt P10275); test: Transactivation (luciferase) assay in U2OS-hAR-ARE-Luc reporter cells, screen and validation; type: cell-based; conditions: for Results of 1st screen on AR: 0.3, 1, 3, 10 µM, 16 h, hit = AR transcriptional activity changed by more than 50% dose-dependently, <20% effect in control cells; for Nature of AR inhibition (competitive or non-competitive): 1 nM versus 100 nM R1881
T1 sequence (P10275 1-920): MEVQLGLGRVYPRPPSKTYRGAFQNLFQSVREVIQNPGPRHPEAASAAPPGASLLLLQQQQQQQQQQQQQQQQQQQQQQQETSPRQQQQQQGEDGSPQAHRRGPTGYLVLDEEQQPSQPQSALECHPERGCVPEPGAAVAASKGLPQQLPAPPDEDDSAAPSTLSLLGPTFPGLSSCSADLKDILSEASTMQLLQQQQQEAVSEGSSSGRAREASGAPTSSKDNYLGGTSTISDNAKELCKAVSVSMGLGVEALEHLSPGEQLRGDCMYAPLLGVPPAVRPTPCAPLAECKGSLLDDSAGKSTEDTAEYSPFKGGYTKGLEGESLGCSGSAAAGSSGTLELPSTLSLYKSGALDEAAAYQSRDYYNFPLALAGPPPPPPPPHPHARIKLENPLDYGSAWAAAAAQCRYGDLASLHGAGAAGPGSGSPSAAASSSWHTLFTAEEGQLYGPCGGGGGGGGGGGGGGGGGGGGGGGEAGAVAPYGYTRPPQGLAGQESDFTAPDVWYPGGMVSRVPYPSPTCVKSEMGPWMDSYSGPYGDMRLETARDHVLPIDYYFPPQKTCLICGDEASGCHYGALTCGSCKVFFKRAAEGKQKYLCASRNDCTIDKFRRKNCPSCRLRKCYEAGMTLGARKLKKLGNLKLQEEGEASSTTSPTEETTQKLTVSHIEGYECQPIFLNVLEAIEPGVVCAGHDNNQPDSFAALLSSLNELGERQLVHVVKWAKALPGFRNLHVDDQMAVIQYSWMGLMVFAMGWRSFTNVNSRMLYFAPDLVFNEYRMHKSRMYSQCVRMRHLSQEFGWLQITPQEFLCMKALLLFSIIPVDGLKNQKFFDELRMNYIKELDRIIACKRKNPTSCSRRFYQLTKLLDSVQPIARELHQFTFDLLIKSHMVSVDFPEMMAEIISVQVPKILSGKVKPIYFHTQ
Method: U2OS-hAR-ARE(Rad9)-Luc and U2OS-hARv7-ARE(PB)-Luc were then used to screen the Prestwick phytochemical library®, containing 320 natural compounds, at four concentrations (0.3, 1, 3, 10 µM) in duplicate.

[2] = test system: U2OS-ARE-Luc control cells; test: Luciferase activity in U2OS-ARE-Luc control cells; conditions: validation, up to 3 µM, 16 h

Compound | Results of 1st screen on AR [1] | also measured
COc1ccc(-c2cc(=O)c3c(O)cc(O)cc3o2)cc1 [Acacetin] | No effect | –
C[C@@H]1O[C@@H](O[C@H]2C(=O)c3c(O)cc(O)cc3O[C@@H]2c2ccc(O)c(O)c2)[C@H](O)[C@H](O)[C@H]1O [Astilbin] | No effect | –
COc1ccc2cc3n(c(=O)c2c1OC)CCc1cc2c(cc1-3)OCO2 [Berlambine] | No effect | –
C=C(C)[C@@H]1CC[C@]2(C(=O)O)CC[C@]3(C)[C@H](CC[C@@H]4[C@@]5(C)CC[C@H](O)C(C)(C)[C@@H]5CC[C@]43C)[C@@H]12 [Betulinic acid] | No effect | –
NCCC(O)C(=O)NC1CC(N)C(OC2OC(CN)C(O)[C@H](O)[C@@H]2N)[C@H](OC2O[C@H](CO)[C@@H](O)[C@@H]2O)[C@@H]1O.O=S(=O)(O)O.O=S(=O)(O)O (stereo partly shown) [Butirosin disulfate salt] | No effect | –
NC(N)=NOCC[C@H](N)C(=O)O.O.O=S(=O)(O)O [Canavanine sulfate monohydrate (L,+)] | No effect | –
COc1cc(O)cc(O)c1C(=O)/C=C/c1ccccc1 [Cardamonin] | No effect | –
COc1c2c(cc3oc(CO)cc(=O)c13)O[C@H](C(C)(C)O)C2 [Cimifugin] | No effect | –
C[C@H]1[C@H]2CC[C@H]3[C@@H]4CC=C5C[C@@H](N(C)C)CC[C@]5(C)[C@H]4CC[C@]23CN1C [Conessine] | No effect | –
O=c1c(-c2ccc(O)cc2)coc2cc(O[C@@H]3O[C@H](CO)[C@@H](O)[C@H](O)[C@H]3O)cc(O)c12 [Genistin] | No effect | –
CN(C)Cc1c[nH]c2ccccc12 [Gramine] | No effect | –
COc1ccc2c3c([nH]c2c1)C(C)=NCC3 [Harmaline hydrochloride dihydrate] | No effect | Results of 1st screen on AR ([1]; listed as harmaline): inactive
CC1=NCCc2c1[nH]c1cc(O)ccc21 [Harmalol hydrochloride dihydrate] | No effect | Results of 1st screen on AR ([1]; listed as harmalol): inactive
Cc1nccc2c1[nH]c1ccccc12 [Harmane hydrochloride] | Inhibition | Results of confirmatory screen (validation of AR inhibition) [1]: Not confirmed; Results of 1st screen on AR ([1]; listed as harmane): active inhibitors of AR transcriptional activity
COc1ccc2c(c1)[nH]c1c(C)nccc12 [Harmine hydrochloride] | Inhibition | Effect on luciferase activity in control cells [2]: no effect; Results of confirmatory screen (validation of AR inhibition) [1]: Confirmed; Nature of AR inhibition (competitive or non-competitive) [1]: non-competitive manner; Results of 1st screen on AR ([1]; listed as harmine): active inhibitors of AR transcriptional activity; Results of confirmatory screen (validation of AR inhibition) ([1]; listed as harmine): could impair the transcriptional activity of AR
COc1ccc([C@@H]2CC(=O)c3c(O)cc(O[C@@H]4O[C@H](CO[C@@H]5O[C@@H](C)[C@H](O)[C@@H](O)[C@H]5O)[C@@H](O)[C@H](O)[C@H]4O)cc3O2)cc1O [Hesperidin] | No effect | –
Br.CC[C@H]1CN2CCC1C[C@H]2[C@H](O)c1ccnc2ccc(OC)cc12.O (stereo partly shown) [Hydroquinine hydrobromide hydrate] | No effect | –
O=C1Nc2ccccc2/C1=C1/Nc2ccccc2C1=O [Indirubin] | No effect | –
CC1=C2C(=O)[C@H]3[C@@H](CC=C4C[C@@H](O)CC[C@@]43C)[C@@H]2CC[C@]12O[C@@H]1C[C@H](C)CN[C@H]1[C@H]2C [Jervine] | No effect | –
O=C1CCC[C@@H]2[C@H]3CCCN4CCC[C@@H](CN12)[C@@H]34 [Matrine] | No effect | –

Compound | Results of 1st screen on AR [1] | also measured
C=C(C)[C@@H]1[C@H]2OC(=O)[C@@H]1[C@]1(O)C[C@H]3O[C@]34C(=O)O[C@H]2[C@]14C [Picrotoxinin] | No effect | –
CC[C@@H](C)C(=O)O[C@H]1[C@H](O)[C@H]2[C@@H](CN3C[C@@H](C)CC[C@H]3[C@@]2(C)O)[C@@H]2C[C@]34O[C@]5(O)[C@@H](OC(=O)[C@@](C)(O)CC)CC[C@@]3(C)[C@@H]5[C@@H](OC(C)=O)[C@@H](OC(C)=O)[C@H]4[C@@]21O [Protoveratrine A] | No effect | –
CN1[C@@H]2CCC[C@H]1CC(=O)C2.Cl [Pseudopelletierine hydrochloride] | No effect | –
O=c1c2ccccc2nc2n1CCc1c-2[nH]c2ccccc12 [Rutaecarpine] | No effect | –
C[C@@H]1O[C@@H](OC[C@H]2O[C@@H](Oc3c(-c4ccc(O)c(O)c4)oc4cc(O)cc(O)c4c3=O)[C@H](O)[C@@H](O)[C@@H]2O)[C@H](O)[C@H](O)[C@H]1O [Rutin] | No effect | –
OCc1ccccc1O[C@@H]1O[C@H](CO)[C@@H](O)[C@H](O)[C@H]1O [Salicin] | No effect | –
C[C@@H]1NCCc2cc(O)c(O)cc21 [Salsolinol hydrobromide] | No effect | –
COc1ccc2c(OC)c3ccoc3nc2c1OC [Skimmianine] | No effect | –
C[C@@H]1CC[C@@]2(NC1)O[C@H]1C[C@H]3[C@@H]4CC=C5C[C@@H](O)CC[C@]5(C)[C@H]4CC[C@]3(C)[C@H]1[C@@H]2C [Solasodine] | No effect | –
C[N+]1(C)CCC[C@H]1C(=O)[O-].Cl [Stachydrine hydrochloride] | No effect | –
O=c1cc(-c2ccc(O)cc2)oc2c([C@@H]3O[C@H](CO)[C@@H](O)[C@H](O)[C@H]3O)c(O)cc(O)c12 [Vitexin] | No effect | –
C[C@]12CC[C@H](O)C[C@H]1CC[C@@H]1[C@@H]2CC[C@]2(C)[C@@H](C3=CC(=O)OC3)CC[C@]12O [digitoxigenin] | active inhibitors of AR transcriptional activity | –
Cc1c2ccncc2c(C)c2c1[nH]c1ccccc12 [ellipticine] | active inhibitors of AR transcriptional activity | Effect on luciferase activity in control cells [2]: no effect; Nature of AR inhibition (competitive or non-competitive) [1]: non-competitive manner; Results of confirmatory screen (validation of AR inhibition) ([1]; six concentrations, absence or presence of 1 nM or 100 nM R1881): could impair the transcriptional activity of AR
C=CCc1ccc(O)c(-c2ccc(O)c(CC=C)c2)c1 [honokiol] | active inhibitors of AR transcriptional activity | –
COc1ccc2[nH]c3c(c2c1)CCN=C3C [methoxy-6-harmalan] | inactive | –
CN1CCc2cc3c(c4c2C1Cc1ccccc1-4)OCO3 (stereo not shown) [remerine] | active inhibitors of AR transcriptional activity | –
Evodiamine | No effect | –
Foliosidine | No effect | –
Retrorsine | No effect | –
strophantin | active inhibitors of AR transcriptional activity | –
